# Data reported in patent publication US20090182040A1, “Method of Preventing or Reducing Insecticidal Resistance” (BASF SE, priority 2006, published 2009).
# Tested on: adult pollen beetles with resistance against pyrethroids
# Assay: Field trial on a commercial oilseed rape field: spray treatment, count of living adult pollen beetles
# Format: in vivo, Meligethes aeneus
# Protocol: Experiments were carried out on a commercial oilseed rape field location previously confirmed to have adult pollen beetles with resistance against pyrethroids. The experiments were carried out according the GEP settings for field trial set up and corresponding assessment of the treatments. The lay-out was a standard randomized block de-sign with 4 replicates. The different treatments (see Table 1 below) were prepared by diluting the respective products in water by well homogenized standard stirring in order to spray the four replicates at a spray volume of 300 to 400 liter per ha. The products used were the commercial formulation Fastac® OESC (containing 100 g per liter alpha-cypermethrin) and an experimental liquid formulation (containing 303.5 g PBO on a weight per weight basis). The three combinations of Fastac® OESC and the PBO containing liquid formulation in the Table 1 below were made as a tank mix of a standard rate of Fastac® OESC and a varying rate for the PBO containing formulation. The treatments were sprayed on the plants and the adult pollen beetles present on the plant by means of a knapsack sprayer at standard air pressure. The treatments were applied shortly after each other by appropriate rinsing in between according the GEP standard procedure. The development growth stage of the oilseed rape according to the BBCH code at the time of the treatment was 50 to 59 (the abbreviation “BBCH” stands for the Biologische Bundesanstalt, Bundessortenamt and Chemische Industrie). Shortly before the treatment the present adult pollen beetles were assessed in counting the number of adult pollen beetles present on 50 inflorescences—randomly taken—in each of the replicates. The total number of adult pollen beetles on the 4 replicates was then divided by 4 to give the average number of living adult pollen beetles per 50 inflorescenses, mentioned in the Table 1 below. The same procedure was followed respectively 3 and 6 days after the treatment (DAT).
compound,measurement,setting,value
CC1(C)C(C=C(Cl)Cl)C1C(=O)OC(C#N)c1cccc(Oc2ccccc2)c1 (stereo not drawn) [alpha-cypermethrin],Average number of living adult pollen beetles per 50 inflorescenses,"alpha-cypermethrin 7.5 g a.i./ha, 0 DAT (count shortly before treatment), oilseed rape field, 4 replicates",343
same,Average number of living adult pollen beetles per 50 inflorescenses,"alpha-cypermethrin 7.5 g a.i./ha, 3 DAT",119
same,Average number of living adult pollen beetles per 50 inflorescenses,"alpha-cypermethrin 7.5 g a.i./ha, 6 DAT",75
same,Average number of living adult pollen beetles per 50 inflorescenses,"alpha-cypermethrin 12.5 g a.i./ha, 0 DAT (count shortly before treatment)",352
same,Average number of living adult pollen beetles per 50 inflorescenses,"alpha-cypermethrin 12.5 g a.i./ha, 3 DAT",116
same,Average number of living adult pollen beetles per 50 inflorescenses,"alpha-cypermethrin 12.5 g a.i./ha, 6 DAT",79
